Assay results as given in ChEMBL document CHEMBL2021851, “Synthesis and SAR studies of imidazo-[1,2-a]-pyrazine Aurora kinase inhibitors with improved off-target kinase selectivity” (Bioorg Med Chem Lett, 2012).

Tests used:
[1] = target: T1, Serine/threonine-protein kinase Chk1 (Homo sapiens, UniProt O14757); experiment: Inhibition of Chk1
T1 sequence (O14757 whole entry): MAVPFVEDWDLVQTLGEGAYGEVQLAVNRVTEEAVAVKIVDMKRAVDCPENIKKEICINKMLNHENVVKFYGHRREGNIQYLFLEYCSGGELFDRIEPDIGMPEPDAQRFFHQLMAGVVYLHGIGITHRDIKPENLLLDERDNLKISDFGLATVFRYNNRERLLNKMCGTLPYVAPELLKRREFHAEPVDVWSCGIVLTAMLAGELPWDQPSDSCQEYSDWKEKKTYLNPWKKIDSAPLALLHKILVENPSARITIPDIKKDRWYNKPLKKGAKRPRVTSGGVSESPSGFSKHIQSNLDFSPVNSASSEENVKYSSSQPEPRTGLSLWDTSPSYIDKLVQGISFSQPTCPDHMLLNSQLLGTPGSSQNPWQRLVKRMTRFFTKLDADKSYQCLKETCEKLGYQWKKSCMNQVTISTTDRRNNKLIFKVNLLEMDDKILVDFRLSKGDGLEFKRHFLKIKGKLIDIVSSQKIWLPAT

[2] = target: Vascular endothelial growth factor receptor 2 (Homo sapiens, UniProt P35968); experiment: Inhibition of VEGFR2
[3] = target: Ribosomal protein S6 kinase alpha-3 (Homo sapiens, UniProt P51812); experiment: Inhibition of RSK2
Aurora kinase A = target: T2, Aurora kinase A (Homo sapiens, UniProt O14965); experiment: Inhibition of aurora A kinase using 5TAMRA-GRTGRRNSICOOH as substrate by fluorescent assay
T2 sequence (O14965 whole entry): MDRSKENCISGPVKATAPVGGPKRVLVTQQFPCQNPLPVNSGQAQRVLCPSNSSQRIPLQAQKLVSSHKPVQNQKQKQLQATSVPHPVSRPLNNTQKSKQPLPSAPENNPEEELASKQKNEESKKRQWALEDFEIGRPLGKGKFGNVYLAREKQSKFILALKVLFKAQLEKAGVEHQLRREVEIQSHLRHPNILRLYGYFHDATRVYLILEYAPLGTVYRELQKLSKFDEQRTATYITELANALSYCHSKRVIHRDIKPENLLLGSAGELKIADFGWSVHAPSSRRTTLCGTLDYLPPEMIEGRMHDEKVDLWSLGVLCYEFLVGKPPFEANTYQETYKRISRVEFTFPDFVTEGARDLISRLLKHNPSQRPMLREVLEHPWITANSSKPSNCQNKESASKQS

[4] = target: Tyrosine-protein kinase Lck (Homo sapiens, UniProt P06239); experiment: Inhibition of LCK
Aurora kinase B [5] = target: T3, Aurora kinase B (Homo sapiens, UniProt Q96GD4); experiment: Inhibition of aurora B kinase in human HCT116 cells assessed as inhibition of histone H3 phosphorylation incubated for 1 hr by Hoechst 33342 staining based microscopic analysis; format: cell-based, HCT-116
[6] = target: T4, Interleukin-1 receptor-associated kinase 4 (Homo sapiens, UniProt Q9NWZ3); experiment: Inhibition of IRAK4
T4 sequence (Q9NWZ3 whole entry): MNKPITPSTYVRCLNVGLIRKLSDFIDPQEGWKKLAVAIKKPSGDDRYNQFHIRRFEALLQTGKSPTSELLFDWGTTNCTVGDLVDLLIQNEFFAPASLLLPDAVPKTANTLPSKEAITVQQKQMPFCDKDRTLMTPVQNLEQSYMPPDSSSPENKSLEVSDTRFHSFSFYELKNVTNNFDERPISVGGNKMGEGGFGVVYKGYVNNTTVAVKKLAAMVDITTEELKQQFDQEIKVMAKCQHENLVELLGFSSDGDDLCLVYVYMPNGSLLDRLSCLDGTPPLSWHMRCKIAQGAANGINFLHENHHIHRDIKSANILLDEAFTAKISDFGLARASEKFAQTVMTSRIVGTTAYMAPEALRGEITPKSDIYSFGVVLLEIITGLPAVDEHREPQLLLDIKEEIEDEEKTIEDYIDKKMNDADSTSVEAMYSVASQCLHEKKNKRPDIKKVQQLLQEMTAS

Aurora kinase B [7] = target: T3, Aurora kinase B; experiment: Inhibition of aurora B kinase using 5TAMRA-GRTGRRNSICOOH as substrate by fluorescent assay

T3 sequence (Q96GD4 whole entry): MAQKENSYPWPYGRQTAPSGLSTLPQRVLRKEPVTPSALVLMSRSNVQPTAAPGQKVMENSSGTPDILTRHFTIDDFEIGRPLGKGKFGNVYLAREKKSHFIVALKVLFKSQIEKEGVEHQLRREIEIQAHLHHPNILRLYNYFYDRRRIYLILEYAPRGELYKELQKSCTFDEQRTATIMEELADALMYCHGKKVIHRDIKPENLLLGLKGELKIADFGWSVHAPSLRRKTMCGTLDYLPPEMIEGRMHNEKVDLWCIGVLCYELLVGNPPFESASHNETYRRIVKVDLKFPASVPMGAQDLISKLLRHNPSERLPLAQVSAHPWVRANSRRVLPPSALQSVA
Sequence of Tyrosine-protein kinase Lck (P06239 whole entry): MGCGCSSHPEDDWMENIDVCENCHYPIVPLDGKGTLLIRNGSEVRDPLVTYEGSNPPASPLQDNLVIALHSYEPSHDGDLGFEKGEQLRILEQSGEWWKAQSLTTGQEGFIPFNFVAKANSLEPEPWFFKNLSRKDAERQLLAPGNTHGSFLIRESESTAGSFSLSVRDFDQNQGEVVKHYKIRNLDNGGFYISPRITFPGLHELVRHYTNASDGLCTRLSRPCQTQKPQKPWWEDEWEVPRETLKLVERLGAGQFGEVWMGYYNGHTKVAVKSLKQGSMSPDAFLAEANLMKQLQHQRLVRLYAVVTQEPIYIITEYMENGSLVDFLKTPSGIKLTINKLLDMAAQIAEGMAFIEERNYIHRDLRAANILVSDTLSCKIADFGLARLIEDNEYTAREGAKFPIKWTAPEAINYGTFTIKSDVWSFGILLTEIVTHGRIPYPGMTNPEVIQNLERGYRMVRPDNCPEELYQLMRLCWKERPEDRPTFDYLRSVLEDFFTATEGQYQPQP
Sequence of Vascular endothelial growth factor receptor 2 (P35968 whole entry): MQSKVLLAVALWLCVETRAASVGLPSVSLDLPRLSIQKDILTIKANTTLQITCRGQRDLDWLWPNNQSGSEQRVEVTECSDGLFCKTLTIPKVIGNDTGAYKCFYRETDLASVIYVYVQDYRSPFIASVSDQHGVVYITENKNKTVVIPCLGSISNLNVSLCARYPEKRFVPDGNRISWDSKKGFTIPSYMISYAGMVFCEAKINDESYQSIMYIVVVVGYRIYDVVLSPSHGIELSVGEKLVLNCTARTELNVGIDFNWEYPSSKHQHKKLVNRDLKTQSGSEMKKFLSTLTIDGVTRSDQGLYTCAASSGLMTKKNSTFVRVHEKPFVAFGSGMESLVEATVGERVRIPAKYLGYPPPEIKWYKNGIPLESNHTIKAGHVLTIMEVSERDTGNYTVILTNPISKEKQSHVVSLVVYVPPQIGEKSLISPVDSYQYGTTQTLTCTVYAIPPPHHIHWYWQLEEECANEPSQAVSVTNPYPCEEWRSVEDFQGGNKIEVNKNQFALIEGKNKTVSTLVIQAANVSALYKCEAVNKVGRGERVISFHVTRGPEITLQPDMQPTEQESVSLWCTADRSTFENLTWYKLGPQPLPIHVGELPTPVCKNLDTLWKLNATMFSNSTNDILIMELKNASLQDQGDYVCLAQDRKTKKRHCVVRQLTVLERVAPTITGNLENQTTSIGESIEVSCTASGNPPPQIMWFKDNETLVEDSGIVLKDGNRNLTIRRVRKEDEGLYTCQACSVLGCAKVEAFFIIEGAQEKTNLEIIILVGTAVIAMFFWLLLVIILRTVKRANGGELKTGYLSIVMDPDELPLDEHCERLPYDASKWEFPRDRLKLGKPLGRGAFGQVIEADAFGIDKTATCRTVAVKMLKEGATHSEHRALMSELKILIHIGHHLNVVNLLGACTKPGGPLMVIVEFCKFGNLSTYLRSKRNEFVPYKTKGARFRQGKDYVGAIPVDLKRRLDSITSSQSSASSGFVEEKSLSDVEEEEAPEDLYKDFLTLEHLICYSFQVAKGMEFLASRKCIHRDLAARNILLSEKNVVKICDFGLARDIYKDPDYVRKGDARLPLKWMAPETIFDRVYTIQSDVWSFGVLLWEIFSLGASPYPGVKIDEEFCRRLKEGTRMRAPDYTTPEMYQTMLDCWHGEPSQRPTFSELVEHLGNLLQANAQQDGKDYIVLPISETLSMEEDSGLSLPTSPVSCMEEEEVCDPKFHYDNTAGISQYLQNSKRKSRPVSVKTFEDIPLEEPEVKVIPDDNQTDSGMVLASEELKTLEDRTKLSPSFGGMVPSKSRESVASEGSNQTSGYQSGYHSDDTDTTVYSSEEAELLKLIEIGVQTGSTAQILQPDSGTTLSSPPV
Sequence of Ribosomal protein S6 kinase alpha-3 (P51812 whole entry): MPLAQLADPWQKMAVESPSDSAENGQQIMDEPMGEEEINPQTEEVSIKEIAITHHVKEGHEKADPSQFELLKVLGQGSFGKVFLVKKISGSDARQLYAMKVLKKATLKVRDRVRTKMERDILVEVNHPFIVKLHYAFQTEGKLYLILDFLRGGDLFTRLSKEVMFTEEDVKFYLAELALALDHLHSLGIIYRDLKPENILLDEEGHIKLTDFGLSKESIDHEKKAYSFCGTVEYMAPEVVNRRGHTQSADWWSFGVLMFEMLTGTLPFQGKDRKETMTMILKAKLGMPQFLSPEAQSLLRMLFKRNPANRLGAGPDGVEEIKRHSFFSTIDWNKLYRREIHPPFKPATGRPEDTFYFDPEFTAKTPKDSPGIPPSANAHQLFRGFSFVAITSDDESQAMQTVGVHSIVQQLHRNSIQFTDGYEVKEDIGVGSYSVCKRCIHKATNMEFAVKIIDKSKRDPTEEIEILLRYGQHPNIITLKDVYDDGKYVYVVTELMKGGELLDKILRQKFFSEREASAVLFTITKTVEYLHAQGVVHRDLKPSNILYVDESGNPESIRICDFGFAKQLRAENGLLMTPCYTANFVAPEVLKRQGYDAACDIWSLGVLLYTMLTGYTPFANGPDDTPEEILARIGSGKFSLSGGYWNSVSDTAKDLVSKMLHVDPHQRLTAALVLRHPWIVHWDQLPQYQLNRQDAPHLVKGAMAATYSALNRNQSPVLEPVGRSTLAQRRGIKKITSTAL

| IC50 [1] [nM] | IC50 [2] [nM] | IC50 [3] [nM] | IC50 (Aurora kinase A) [nM] | IC50 [4] [nM] | EC50 (Aurora kinase B [5]) [nM] | IC50 [6] [nM] | IC50 (Aurora kinase B [7]) [nM] | Structure (SMILES) |
| --- | --- | --- | --- | --- | --- | --- | --- | --- |
| 100 | 108 | 1100 | 12 | 731 | 83 | 1140 | ≤ 13 | Cc1cn2c(-c3cnn(CC(=O)Nc4ccncc4)c3)cnc2c(Nc2cc(CN3CCCC(C)C3)ns2)n1 (stereo unspecified) |
| 300 | 253 | 6800 | < 4 | 271 | 62 | 1220 | ≤ 13 | Cc1cn2c(-c3cnn(CC(=O)Nc4ccncc4F)c3)cnc2c(Nc2cc(CN3CCCC(C)C3)ns2)n1 (stereo unspecified) |
